Key:
Assay in all cases: relative viability (nuclei count vs DMSO), 5 days (fraction); higher = more cells survive
[1] = compound: C1/C(=C\C2=CC=CS2)/C(=O)/C(=C/C3=CC=CS3)/C1 + Cc1nc(Nc2ncc(C(=O)Nc3c(C)cccc3Cl)s2)cc(N2CCN(CCO)CC2)n1 [Dasatinib] (partner 0.075 µM)
Summary of the method: (§1)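 Cells from lung cancer lines were seeded into 1536-well plates and, one day later, dosed by pin tool. Treatments were either a single drug or a fixed dose of an anchor drug with five library-drug doses (not always all listed) in √10 steps. After 5 days, nuclei were stained in a one-step fixation (final 0.05% Triton X-100, 1% formaldehyde, 1 ug/ml Hoechst) and counted on 4× images, and relative viability is the treated-to-vehicle nuclei ratio, as the median of duplicate plates.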

[2] = compound: C1/C(=C\C2=CC=CS2)/C(=O)/C(=C/C3=CC=CS3)/C1 + Nc1ncn([C@H]2C[C@H](O)[C@@H](CO)O2)c(=O)n1 [Decitabine] (partner 2 µM)
Summary of the method: as §1

[3] = compound: C1=CC(=CC=C1C2=CC(=C(S2)NC(=O)N)C(=O)N)F [TPCA-1] + CC1(C)CCC(c2ccc(Cl)cc2)=C(CN2CCN(c3ccc(C(=O)NS(=O)(=O)c4ccc(N[C@H](CCN5CCOCC5)CSc5ccccc5)c(S(=O)(=O)C(F)(F)F)c4)cc3)CC2)C1 [Navitoclax] (partner 0.5 µM)
Summary of the method: as §1

[4] = compound: C[C@]12O[C@H](C[C@]1(O)CO)n1c3ccccc3c3c4c(c5c6ccccc6n2c5c31)CNC4=O [Lestaurtinib] + CS(=O)(=O)N1CCN(Cc2cc3nc(-c4cccc5[nH]ncc45)nc(N4CCOCC4)c3s2)CC1 [Pictilisib] (partner 1 µM)
Summary of the method: as §1

Question: UMC-11 was tested. Which relative viability ([1]; first compound 0.2 µM) did it give?
Answer: 0.555

Question: What about the relative viability ([1]; first compound 0.6325 µM) of the same cell line?
Answer: 0.507

Question: And the relative viability ([1]; first compound 20 µM)?
Answer: 0.472

Question: What about the relative viability ([2]; first compound 0.2 µM) of the same cell line?
Answer: 0.752

Question: What about the relative viability ([2]; first compound 0.6325 µM) of the same cell line?
Answer: 0.653

Question: And the relative viability ([2]; first compound 2 µM)?
Answer: 0.637

Question: And the relative viability ([2]; first compound 6.325 µM)?
Answer: 0.513

Question: And the relative viability ([2]; first compound 20 µM)?
Answer: 0.515

Question: And the relative viability ([3]; first compound 0.04 µM)?
Answer: 0.354

Question: And the relative viability ([3]; first compound 0.1265 µM)?
Answer: 0.335

Question: And the relative viability ([3]; first compound 0.4 µM)?
Answer: 0.394

Question: What about the relative viability ([3]; first compound 1.265 µM) of the same cell line?
Answer: 0.415

Question: And the relative viability ([3]; first compound 4 µM)?
Answer: 0.253

Question: And the relative viability ([4]; first compound 0.005 µM)?
Answer: 0.83

Question: What about the relative viability ([4]; first compound 0.01581 µM) of the same cell line?
Answer: 0.767

Question: What about the relative viability ([4]; first compound 0.05 µM) of the same cell line?
Answer: 0.415

Question: What about the relative viability ([4]; first compound 0.1581 µM) of the same cell line?
Answer: 0.366

Question: What about the relative viability ([4]; first compound 0.5 µM) of the same cell line?
Answer: 0.145

From the supplement of paper PMC10307832
